We go through 24 molecules from article PMC9291665, “Discovery and SAR analysis of 5-chloro-4-((substituted phenyl)amino)pyrimidine bearing histone deacetylase inhibitors” (Journal of Enzyme Inhibition and Medicinal Chemistry, 2022).

Assay [1] has as its system K562 cells. The assay can be described thus: In vitro antiproliferative assay (CCK-8), K562. It counts as cell-based. Particulars: Homo sapiens, at concentration of 1.0 µM, mean of three experiments, read-out: K562 percentage inhibitory rate. The procedure: The proliferation of cancer cells was tested by CCK-8 assay. Briefly, cells were seeded in 96-well plate with about 5 × 10^3 cells in each well. The cells were treated with tested compounds after 24 h of incubation. CCK-8 reagent ([…]) was added to each well after 72 h of incubation, and cells were incubated at 37 °C for 4 h. The light absorbance at 450 nm was measured by using an Opsys microplate reader (Dynex Technologies, Chantilly, VA, USA).

The subject of assay [2] is Hela nucleus extract containing a mixture of HDAC isoforms. The assay can be described thus: HDAC enzyme inhibitory screening against Hela nucleus extract. Particulars: at concentration of 1.0 µM, mean of three experiments. It counts as biochemical. The procedure:
The synthesised molecules were firstly screened against Hela nucleus extract containing a mixture of HDAC isoforms.
All HDAC enzymes were purchased from BPS Bioscience. In short, 60 µL of recombinant HDAC enzyme solution was mixed with various concentrations of test compound (40 µL), and then incubated at 37 °C for 30 minutes. The reaction was terminated by adding 100 µL of imaging agent containing trypsin and trichostatin A (TSA). After standing for 20 min, the fluorescence intensity was measured at the excitation and emission wavelengths of 360 and 460 nm with a microplate reader. The inhibition rate was calculated from the fluorescence intensity readings of the test wells relative to the control wells, and the IC50 curve and value were determined by GraphPad Prism 6.0 software.

Assay [3] relates to H3122. Details: method as in PMID 17185414, PMID 27144831. Particulars: cited from earlier work.
Assay [4] relates to H2228. Details: method as in PMID 17185414, PMID 27144831. Particulars: cited from earlier work.
In assay [5] the test system is MDA-MB-468. The assay can be described thus: In vitro antiproliferative assay (CCK-8), MDA-MB-468. The format is cell-based. Particulars: Homo sapiens, CCK-8, 72 h. As for the experimental part: (§1) Compound L20 with good performances in both enzyme and K562 cell inhibitory tests were selected for further antiproliferative assay against various cell lines. K562, U266, U937, C6, Fadu, MDA-MB-231, MDA-MB-468, A549, A2780 and HepG2 cell lines were used in the cell-based anticancer evaluation of L20.
(§2) The proliferation of cancer cells was tested by CCK-8 assay. Briefly, cells were seeded in 96-well plate with about 5 × 10^3 cells in each well. The cells were treated with tested compounds after 24 h of incubation. CCK-8 reagent ([…]) was added to each well after 72 h of incubation, and cells were incubated at 37 °C for 4 h. The light absorbance at 450 nm was measured by using an Opsys microplate reader (Dynex Technologies, Chantilly, VA, USA). Results are illustrated as percent of cell viability normalised to DMSO-treated control cells.

In assay [6] the test system is K562 cells. The assay can be described thus: Cell apoptosis analysis by flow cytometry (Annexin V-BV421 / 7-AAD). Particulars: 24 h, control 1.14%. For orientation: A flow cytometer gives signals particle by particle.
Protocol: Cells were incubated with Annexin V-BV421 (Becton Dickinson, USA) and 7-AAD (Becton Dickinson, USA) double labelling for 30 min in the dark at room temperature and measured by flow cytometry (FACSAriaIII, Becton Dickinson, USA). The data was analysed using Flowjo-V10 software.
The subject of assay [7] is MDA-MB-231. The assay can be described thus: In vitro antiproliferative assay (CCK-8), MDA-MB-231. The format is cell-based. Particulars: Homo sapiens, CCK-8, 72 h. The procedure:
as §1, §2

What is called GI50 is the concentration at which growth is held to half of that of the control. For orientation: IC50 means the concentration needed to halve the response being measured. High values mean weaker potency, low ones greater potency.

Regarding `COc1ccc(Nc2nc(N3CCN(c4ccc(C(=O)NO)cc4)CC3)ncc2Cl)cc1OC` [Compound L7, 4–(4-(5-chloro-4-((3,4-dimethoxyphenyl)amino)pyrimidin-2-yl)piperazin-1-yl)-N-hydroxybenzamide], the inhibition at 1 µM in assay [1] was found to be 63.9 ± 1.12%. Also, the “HDACs percentage inhibitory rate” value in assay [2] worked out at 58.37 ± 1.55%.
`Cc1cc(Nc2ncc(Cl)c(Nc3ccccc3S(=O)(=O)C(C)C)n2)c(OC(C)C)cc1C1CCNCC1` [Ceritinib]: the GI50 in assay [3] was 62 nM; in assay [4], 121 nM.
`N#Cc1ccc(Nc2nc(N3CCN(c4ccc(C(=O)NO)cc4)CC3)ncc2Cl)cc1` [Compound L5, 4–(4-(5-chloro-4-((4-cyanophenyl)amino)pyrimidin-2-yl)piperazin-1-yl)-N-hydroxybenzamide]: the inhibition at 1 µM in assay [1] was 31.51 ± 0.09%. Besides, in assay [2], the “HDACs percentage inhibitory rate” value was determined as 48.33 ± 0.64%.
In the case of `O=C(NO)c1ccc(N2CCN(c3ncc(Cl)c(Nc4ccc(I)cc4)n3)CC2)cc1` [Compound L17, 4-(4-(5-chloro-4-((4-iodophenyl)amino)pyrimidin-2-yl)piperazin-1-yl)-N-hydroxybenzamide], in assay [1], the inhibition at 1 µM was found to be 56.4 ± 2.16%. Also, the “HDACs percentage inhibitory rate” value in assay [2] is 54.51 ± 3.05%.
For `O=C(NO)c1ccc(N2CCN(c3ncc(Cl)c(Nc4ccc(-c5ccccc5)cc4)n3)CC2)cc1` [Compound L14, 4–(4–(4-([1,1′-biphenyl]-4-ylamino)-5-chloropyrimidin-2-yl)piperazin-1-yl)-N-hydroxybenzamide], in assay [1], the inhibition at 1 µM is 35.2 ± 1.21%. In assay [2], the “HDACs percentage inhibitory rate” value is listed as 46.80 ± 1.07%.
With `CC(C)S(=O)(=O)c1ccccc1Nc1nc(N2CCN(c3ccc(C(=O)NO)cc3)CC2)ncc1Cl` [Compound L19, 4-(4-(5-chloro-4-((2-(isopropylsulfonyl)phenyl)amino)pyrimidin-2-yl)piperazin-1-yl)-N-hydroxybenzamide], the inhibition at 1 µM in assay [1] came to 21.3 ± 0.65%. Also, the “HDACs percentage inhibitory rate” value in assay [2] was 44.91 ± 4.97%.
On to `COc1cc(Nc2nc(N3CCN(c4ccc(C(=O)NO)cc4)CC3)ncc2Cl)cc(OC)c1` [Compound L6, 4–(4-(5-chloro-4-((3,5-dimethoxyphenyl)amino)pyrimidin-2-yl)piperazin-1-yl)-N-hydroxybenzamide], for which the inhibition at 1 µM in assay [1] was 56.6 ± 0.11%. Moreover, the “HDACs percentage inhibitory rate” value in assay [2] was 59.74 ± 0.03%.
In the case of `O=C(NO)c1ccc(N2CCN(c3ncc(Cl)c(Nc4ccc(F)c(Cl)c4)n3)CC2)cc1` [Compound L18, 4-(4-(5-chloro-4-((3-chloro-4-fluorophenyl)amino)pyrimidin-2-yl)piperazin-1-yl)-N-hydroxybenzamide], the inhibition at 1 µM in assay [1] came out at 31.3 ± 0.92%. Further, the “HDACs percentage inhibitory rate” value in assay [2] turned out to be 52.92 ± 2.00%.
Consider `O=C(CCCCCCC(=O)Nc1ccccc1)NO` [SAHA, Vorinostat, reference compound], for which the IC50 in assay [5] is 4850 ± 230 nM; in assay [7], 3590 ± 240 nM. The “apoptotic rate of K562 cells” value in assay [6] (1 µM) is 1.39%; in assay [6] (2 µM), 3.36%; in assay [6] (4 µM), 19.75%.
With `Cc1ccc(Nc2nc(N3CCN(c4ccc(C(=O)NO)cc4)CC3)ncc2Cl)cc1` [Compound L2, 4–(4-(5-chloro-4-(p-tolylamino)pyrimidin-2-yl)piperazin-1-yl)-N-hydroxybenzamide], in assay [1], the inhibition at 1 µM was found to be 43.9 ± 0.81%. Besides, the “HDACs percentage inhibitory rate” value in assay [2] was determined as 47.98 ± 1.54%.
As for `O=C(NO)c1ccc(N2CCN(c3ncc(Cl)c(Nc4ccc(Br)cc4)n3)CC2)cc1` [Compound L11, 4–(4–(4-((4-bromophenyl)amino)-5-chloropyrimidin-2-yl)piperazin-1-yl)-N-hydroxybenzamide], the inhibition at 1 µM in assay [1] came to 60.9 ± 0.21%. The “HDACs percentage inhibitory rate” value in assay [2] was found to be 59.82 ± 4.01%.
Turning to `O=C(NO)c1ccc(N2CCN(c3ncc(Cl)c(Nc4ccc(F)cc4)n3)CC2)cc1` [Compound L4, 4–(4-(5-chloro-4-((4-fluorophenyl)amino)pyrimidin-2-yl)piperazin-1-yl)-N-hydroxybenzamide], the inhibition at 1 µM in assay [1] is 58.2 ± 1.05%. For the same molecule, the “HDACs percentage inhibitory rate” value in assay [2] came to 53.89 ± 3.35%.
On to `COc1ccc(Nc2nc(N3CCN(c4ncc(C(=O)NO)cn4)CC3)ncc2Cl)cc1OC` [Compound L21, 2–(4-(5-chloro-4-((3,4-dimethoxyphenyl)amino)pyrimidin-2-yl)piperazin-1-yl)-N-hydroxypyrimidine-5-carboxamide], for which, in assay [1], the inhibition at 1 µM came out at 62.6 ± 2.45%. The “HDACs percentage inhibitory rate” value in assay [2] came to 58.95 ± 0.74%.
Consider `COc1cccc(Nc2nc(N3CCN(c4ccc(C(=O)NO)cc4)CC3)ncc2Cl)c1` [Compound L9, 4–(4-(5-chloro-4-((3-methoxyphenyl)amino)pyrimidin-2-yl)piperazin-1-yl)-N-hydroxybenzamide], for which the inhibition at 1 µM in assay [1] was 50.8 ± 2.92%. The “HDACs percentage inhibitory rate” value in assay [2] is on record as 55.28 ± 0.15%.
The corresponding values for `O=C(NO)c1ccc(N2CCN(c3ncc(Cl)c(Nc4cccc(Cl)c4)n3)CC2)cc1` [Compound L12, 4–(4-(5-chloro-4-((3-chlorophenyl)amino)pyrimidin-2-yl)piperazin-1-yl)-N-hydroxybenzamide] are 50.6 ± 1.86% and 32.74 ± 0.38%.
Consider `O=C(NO)c1ccc(N2CCN(c3ncc(Cl)c(Nc4ccc(Cl)cc4)n3)CC2)cc1` [Compound L13, 4–(4-(5-chloro-4-((4-chlorophenyl)amino)pyrimidin-2-yl)piperazin-1-yl)-N-hydroxybenzamide], for which the inhibition at 1 µM in assay [1] was found to be 54.1 ± 2.34%. For the same molecule, in assay [2], the “HDACs percentage inhibitory rate” value amounted to 52.44 ± 1.44%.
Consider `CCOc1ccc(Nc2nc(N3CCN(c4ccc(C(=O)NO)cc4)CC3)ncc2Cl)cc1` [Compound L8, 4–(4-(5-chloro-4-((4-ethoxyphenyl)amino)pyrimidin-2-yl)piperazin-1-yl)-N-hydroxybenzamide], for which the inhibition at 1 µM in assay [1] is 37.1 ± 1.54%. Moreover, in assay [2], the “HDACs percentage inhibitory rate” value is listed as 49.32 ± 0.89%.
Turning to `O=C(NO)c1ccc(N2CCN(c3ncc(Cl)c(Nc4ccccc4)n3)CC2)cc1` [Compound L1, 4–(4-(5-chloro-4-(phenylamino)pyrimidin-2-yl)piperazin-1-yl)-N-hydroxybenzamide], the inhibition at 1 µM in assay [1] was determined as 30.7 ± 0.32%. For the same molecule, in assay [2], the “HDACs percentage inhibitory rate” value was 50.54 ± 2.27%.
As for `COc1cc(Nc2nc(N3CCN(c4ccc(C(=O)NO)cc4)CC3)ncc2Cl)cc(OC)c1OC` [Compound L15, 4–(4-(5-chloro-4-((3,4,5-trimethoxyphenyl)amino)pyrimidin-2-yl)piperazin-1-yl)-N-hydroxybenzamide], in assay [1], the inhibition at 1 µM came out at 58.6 ± 2.01%. Further, the “HDACs percentage inhibitory rate” value in assay [2] amounted to 58.15 ± 2.02%.
In the case of `O=C(NO)c1cnc(N2CCN(c3ncc(Cl)c(Nc4ccc(-c5ccccc5)cc4)n3)CC2)nc1` [Compound L22, 2–(4-(4-([1,1′-biphenyl]-4-ylamino)-5-chloropyrimidin-2-yl)piperazin-1-yl)-N-hydroxypyrimidine-5-carboxamide], in assay [1], the inhibition at 1 µM came out at 37.1 ± 2.11%. For the same molecule, the “HDACs percentage inhibitory rate” value in assay [2] turned out to be 40.93 ± 0.50%.
Regarding `COc1cc(N2CCC(N3CCN(C)CC3)CC2)ccc1Nc1ncc(Cl)c(Nc2ccccc2P(C)(C)=O)n1` [Brigatinib], the GI50 was 4 nM in assay [3] and 10 nM in assay [4].
With `CCc1ccc(Nc2nc(N3CCN(c4ccc(C(=O)NO)cc4)CC3)ncc2Cl)cc1` [Compound L3, 4–(4-(5-chloro-4-((4-ethylphenyl)amino)pyrimidin-2-yl)piperazin-1-yl)-N-hydroxybenzamide], the inhibition at 1 µM in assay [1] is 19.5 ± 0.06%. Besides, in assay [2], the “HDACs percentage inhibitory rate” value is 50.54 ± 0.21%.
As to `O=C(NO)c1ccc(N2CCN(c3ncc(Cl)c(Nc4cccc(Br)c4)n3)CC2)cc1` [Compound L10, 4–(4–(4-((3-bromophenyl)amino)-5-chloropyrimidin-2-yl)piperazin-1-yl)-N-hydroxybenzamide], the inhibition at 1 µM in assay [1] was found to be 31.6 ± 1.12%. Besides, the “HDACs percentage inhibitory rate” value in assay [2] turned out to be 51.50 ± 2.03%.
For the molecule `O=C(NO)c1ccc(N2CCN(c3ncc(Cl)c(Nc4cccc(I)c4)n3)CC2)cc1` [Compound L16, 4-(4-(5-chloro-4-((3-iodophenyl)amino)pyrimidin-2-yl)piperazin-1-yl)-N-hydroxybenzamide], the inhibition at 1 µM in assay [1] worked out at 37.1 ± 1.54%. Further, the “HDACs percentage inhibitory rate” value in assay [2] was found to be 46.50 ± 4.74%.
